Like-named read-outs stand apart in the source and are kept apart here.
Experiments:
CYP1A2 = CYP1A2 (Homo sapiens (Human), UniProt P05177); assay: CYP enzyme inhibition, fluorescent substrate (CEC); conditions: human, 15 min
Protocol: (§1) CYP (Cytochrome P450) enzymes are the major drug metabolizing enzymes present in the liver. The inhibition of CYP enzyme activity (IC50) for each of CYP1A2, CYP2C19, CYP2C9, CYP2D6, CYP3A4(BFC) and CYP3A4(BQ) is determined for compounds, where inhibition of metabolism of a known substrate leads to a decrease in the fluorescence of the metabolized product. The fluorescence of the product is monitored as a function of compound concentration.
(§2) Compounds are dissolved in dimethyl sulfoxide to a concentration of 100 mM. These are diluted 1 μL into 82 μL of acetonitrile. An 11 μL aliquot of this solution is then added to 204 μL of cofactor mix (1.3% NADPH Regeneration system Solution A, 1.04% NADPH Regeneration system Solution B from BD Biosciences, 5% acetonitrile and 0.05% dimethyl sulfoxide). These are then serially diluted 1:1 (160 μL to 160 μL co-factor mix) for a total of 10 points. A 10 μL aliquot of this final mixture is dispensed into 384 well assay plates and incubated for 10 minutes at 37° C. Enzyme and substrate mix (10 μL; 0.5 pmol CYP1A2/5 μM CEC; 1.0 pmol CYP2C9/75 μM MFC; 0.5 pmol CYP2C19/25 μM CEC; 1.5 pmol CYP2D6/1.5 μM AMMC; 1.0 pmol CYP3A4/50 μM BFC; or 1.0 pmol CYP3A4/40 μM BQ) is added to these assay plates. Assay plates are incubated at 37° C. (CYP1A2-15 min; CYP2C9-45 min; CYP2C19, 2D6 and 3A4-30 min) and read in a Tecan Safire 2 plate reader (CYP1A2, 2C19 and 3A4 409 ex/460 em; CYP2C9 and 2D6 409 ex/530 em). The signal versus compound concentration is used to determine the IC50. The enzymes and substrates for this assay are obtained from BD Biosciences.

CYP2C19 = CYP2C19 (Homo sapiens (Human), UniProt P33261); assay: CYP enzyme inhibition, fluorescent substrate (CEC)
Chain of CYP2C19 (P33261 whole entry): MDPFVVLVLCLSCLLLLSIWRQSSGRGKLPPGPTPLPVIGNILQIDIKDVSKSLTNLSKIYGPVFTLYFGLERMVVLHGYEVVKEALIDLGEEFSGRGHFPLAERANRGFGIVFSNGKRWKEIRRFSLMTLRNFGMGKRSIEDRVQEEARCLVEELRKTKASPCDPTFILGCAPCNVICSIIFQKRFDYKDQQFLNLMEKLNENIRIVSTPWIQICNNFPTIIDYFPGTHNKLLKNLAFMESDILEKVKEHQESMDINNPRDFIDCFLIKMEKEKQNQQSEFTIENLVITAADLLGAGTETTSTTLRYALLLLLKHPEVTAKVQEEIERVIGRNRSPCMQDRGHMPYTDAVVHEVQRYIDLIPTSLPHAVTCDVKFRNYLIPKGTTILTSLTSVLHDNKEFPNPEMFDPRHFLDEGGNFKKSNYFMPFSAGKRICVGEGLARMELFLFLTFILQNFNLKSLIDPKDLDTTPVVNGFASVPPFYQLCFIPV
Method in brief: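 10-pt 1:1 serial dilution in co-factor mix (DMSO stock 100 mM); 10 min preincubation, 37 °C; reaction at 37 °C. Readout: fluorescent metabolite of probe substrate. IC50 from signal vs [compound].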

CYP2C9 = CYP2C9 (Homo sapiens (Human), UniProt P11712); assay: CYP enzyme inhibition, fluorescent substrate (MFC); conditions: read-out: Cyp IC50 2C9; CYP2C9, substrate MFC
Chain of CYP2C9 (P11712 whole entry): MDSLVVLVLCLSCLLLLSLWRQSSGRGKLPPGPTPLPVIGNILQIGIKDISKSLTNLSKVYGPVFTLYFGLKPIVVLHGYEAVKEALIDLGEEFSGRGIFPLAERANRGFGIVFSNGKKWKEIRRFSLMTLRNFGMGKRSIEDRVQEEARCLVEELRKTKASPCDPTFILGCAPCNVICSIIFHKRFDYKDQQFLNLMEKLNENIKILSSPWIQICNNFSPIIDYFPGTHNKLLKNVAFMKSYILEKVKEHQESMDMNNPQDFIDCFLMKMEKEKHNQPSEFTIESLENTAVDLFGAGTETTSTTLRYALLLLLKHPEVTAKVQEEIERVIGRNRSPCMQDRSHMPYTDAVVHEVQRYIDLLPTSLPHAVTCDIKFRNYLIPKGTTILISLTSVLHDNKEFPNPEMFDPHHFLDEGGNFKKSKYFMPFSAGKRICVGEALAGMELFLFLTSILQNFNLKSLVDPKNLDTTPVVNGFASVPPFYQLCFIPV
Protocol: as §1
(§3) Compounds are dissolved in dimethyl sulfoxide to a concentration of 100 mM. These are diluted 1 μL into 82 μL of acetonitrile. […] These are then serially diluted 1:1 (160 μL to 160 μL co-factor mix) for a total of 10 points. A 10 μL aliquot of this final mixture is dispensed into 384 well assay plates and incubated for 10 minutes at 37° C. […] Assay plates are incubated at 37° C. […] The signal versus compound concentration is used to determine the IC50. The enzymes and substrates for this assay are obtained from BD Biosciences.

CYP2D6 = CYP2D6 (Homo sapiens (Human), UniProt P10635); assay: CYP enzyme inhibition, fluorescent substrate (AMMC); assay type: in vitro ADME; conditions: read-out: Cyp IC50 2D6
Chain of CYP2D6 (P10635 whole entry): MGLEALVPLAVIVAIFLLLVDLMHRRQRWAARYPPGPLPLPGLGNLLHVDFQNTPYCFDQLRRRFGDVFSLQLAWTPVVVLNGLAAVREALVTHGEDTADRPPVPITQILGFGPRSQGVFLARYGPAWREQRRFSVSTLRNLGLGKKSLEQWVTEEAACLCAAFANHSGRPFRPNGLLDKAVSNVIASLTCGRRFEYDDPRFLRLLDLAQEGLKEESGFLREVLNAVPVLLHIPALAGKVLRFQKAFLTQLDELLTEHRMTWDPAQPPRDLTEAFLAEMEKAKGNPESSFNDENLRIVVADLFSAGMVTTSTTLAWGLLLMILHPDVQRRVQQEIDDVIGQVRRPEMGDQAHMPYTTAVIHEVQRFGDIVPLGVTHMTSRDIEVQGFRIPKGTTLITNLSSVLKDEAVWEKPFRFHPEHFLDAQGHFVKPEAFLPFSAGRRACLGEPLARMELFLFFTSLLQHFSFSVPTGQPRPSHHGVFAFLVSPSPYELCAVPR
Protocol: as §1, §2

CYP3A4(BFC) = CYP3A4(BFC) (Homo sapiens (Human), UniProt P08684); assay: CYP enzyme inhibition, fluorescent substrate BFC
Chain of CYP3A4(BFC) (P08684 whole entry): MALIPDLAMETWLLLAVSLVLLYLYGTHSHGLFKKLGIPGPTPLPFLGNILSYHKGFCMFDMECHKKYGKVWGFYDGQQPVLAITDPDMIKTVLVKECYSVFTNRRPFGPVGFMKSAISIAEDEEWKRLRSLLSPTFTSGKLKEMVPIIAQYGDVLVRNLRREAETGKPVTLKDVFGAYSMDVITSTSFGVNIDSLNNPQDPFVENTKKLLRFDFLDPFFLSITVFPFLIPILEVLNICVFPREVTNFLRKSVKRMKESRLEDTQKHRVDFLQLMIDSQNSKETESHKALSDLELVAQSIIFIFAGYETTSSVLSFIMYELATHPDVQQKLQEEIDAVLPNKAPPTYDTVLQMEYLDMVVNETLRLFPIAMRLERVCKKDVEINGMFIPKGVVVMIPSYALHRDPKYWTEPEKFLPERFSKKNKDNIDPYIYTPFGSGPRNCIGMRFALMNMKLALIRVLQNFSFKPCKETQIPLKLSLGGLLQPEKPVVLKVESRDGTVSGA
Protocol: as §1, §3

CYP3A4(BQ) = CYP3A4(BQ) (Homo sapiens (Human), UniProt P08684); assay: CYP enzyme inhibition, fluorescent substrate BQ; conditions: read-out: Cyp IC50 3A4(BQ); CYP3A4, substrate BQ
Chain of CYP3A4(BQ) (P08684 whole entry): as above
Protocol: as §1, §3

B-Raf [1] = target: B-Raf (Homo sapiens (Human), UniProt P15056); assay: B-Raf kinase activity biochemical assay (AlphaScreen, biotin-MEK1 phosphorylation); conditions: B-Raf
Chain of B-Raf (Homo sapiens (Human), UniProt P15056) (P15056 whole entry): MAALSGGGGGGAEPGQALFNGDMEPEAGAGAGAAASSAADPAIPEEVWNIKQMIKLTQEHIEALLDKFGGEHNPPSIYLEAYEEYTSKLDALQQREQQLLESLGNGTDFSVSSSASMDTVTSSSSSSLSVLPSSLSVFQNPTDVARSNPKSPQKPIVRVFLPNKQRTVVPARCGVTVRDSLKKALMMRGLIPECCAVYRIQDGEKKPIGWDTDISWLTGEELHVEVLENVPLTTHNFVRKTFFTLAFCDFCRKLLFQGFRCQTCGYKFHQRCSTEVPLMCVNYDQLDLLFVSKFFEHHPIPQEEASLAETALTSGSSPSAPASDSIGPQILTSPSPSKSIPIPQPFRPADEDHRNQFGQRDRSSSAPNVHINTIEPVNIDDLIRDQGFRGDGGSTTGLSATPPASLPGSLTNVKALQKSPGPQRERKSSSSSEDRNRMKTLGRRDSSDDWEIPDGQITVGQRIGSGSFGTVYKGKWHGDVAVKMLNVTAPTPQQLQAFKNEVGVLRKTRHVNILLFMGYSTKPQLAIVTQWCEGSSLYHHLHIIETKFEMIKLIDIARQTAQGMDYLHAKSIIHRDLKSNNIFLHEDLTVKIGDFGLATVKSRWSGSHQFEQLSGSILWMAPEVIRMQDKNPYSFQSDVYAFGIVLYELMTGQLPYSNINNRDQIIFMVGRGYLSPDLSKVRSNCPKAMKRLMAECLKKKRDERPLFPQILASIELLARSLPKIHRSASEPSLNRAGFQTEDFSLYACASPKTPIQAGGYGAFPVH
Method in brief: (§4)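 Compounds from a 0.1 mM DMSO stock were tested at 8 serially diluted points. Kinase reactions with 100 μM ATP (final) ran 45 min at room temperature, then were stopped with EDTA buffer containing anti-phospho-MEK1/2 antibody plus streptavidin donor and protein A acceptor beads.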

B-Raf [2] = assay: as above; conditions: for Biochemical activity ratio B/V600E: ratio of IC50 B-Raf / B-Raf V600E; for Biochemical activity ratio B/C: ratio of IC50 B-Raf / c-Raf-1
Method in brief: as §4

B-Raf V600E = B-Raf V600E (Homo sapiens (Human), UniProt P15056, V600E); assay: B-Raf V600E kinase activity biochemical assay (AlphaScreen, biotin-MEK1 phosphorylation); conditions: for IC50: B-Raf V600E; for Biochemical activity ratio V600E/C: ratio of IC50 B-Raf V600E / c-Raf-1
Chain of B-Raf V600E (P15056 whole entry V600E): as the sequence (P15056 whole entry) above, with V600E counted along it
Method in brief: as §4

c-Raf-1 = c-Raf-1 (Homo sapiens, UniProt P04049); assay: c-Raf-1 kinase activity biochemical assay (AlphaScreen, biotin-MEK1 phosphorylation)
Chain of c-Raf-1 (P04049 whole entry, looked up): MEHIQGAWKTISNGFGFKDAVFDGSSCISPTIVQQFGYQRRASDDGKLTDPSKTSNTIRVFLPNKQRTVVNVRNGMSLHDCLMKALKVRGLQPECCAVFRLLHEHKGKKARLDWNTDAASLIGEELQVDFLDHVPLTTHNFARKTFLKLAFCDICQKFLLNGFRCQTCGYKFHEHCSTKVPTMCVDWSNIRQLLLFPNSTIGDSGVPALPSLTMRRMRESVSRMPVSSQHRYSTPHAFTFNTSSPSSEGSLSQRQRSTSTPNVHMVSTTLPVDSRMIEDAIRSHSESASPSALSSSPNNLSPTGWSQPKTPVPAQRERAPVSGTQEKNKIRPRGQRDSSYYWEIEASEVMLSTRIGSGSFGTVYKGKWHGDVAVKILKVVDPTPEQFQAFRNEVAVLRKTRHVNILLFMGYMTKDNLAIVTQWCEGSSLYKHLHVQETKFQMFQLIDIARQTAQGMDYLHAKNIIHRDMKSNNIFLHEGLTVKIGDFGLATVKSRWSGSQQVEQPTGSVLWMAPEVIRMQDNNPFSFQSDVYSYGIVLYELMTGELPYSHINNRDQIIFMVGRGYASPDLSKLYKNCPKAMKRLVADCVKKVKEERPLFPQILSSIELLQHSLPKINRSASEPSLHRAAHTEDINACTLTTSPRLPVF
Method in brief: as §4

[3] = Relative solubility by turbidity threshold concentration in aqueous buffers (pH 1.5, 4.5, 6.8, 7.4); assay type: physicochemical; conditions: for turbidity threshold (L, M, H) 1.4: pH 1.4 [sic] (method: SGF pH 1.5); for turbidity threshold (L, M, H) 4.5: pH 4.5 (SIF); for turbidity threshold (L, M, H) 6.8: pH 6.8 (SIF); for turbidity threshold (L, M, H) 7.4: pH 7.4 (HEPES)
Method in brief: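 Solubility class (high >250 μM, moderate 31.3–250 μM, low <31.3 μM) comes from the concentration where absorbance reaches a 0.01 threshold, averaged across 490/535/650 nm. Samples were compound dilutions from DMSO stock, 1 μL into 99 μL buffer at pH 1.5, 4.5, 6.8 or 7.4.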

[4] = read-out: Cyp IC50 2C19, CYP2C19, substrate CEC
[5] = read-out: Cyp IC50 3A4(BFC), CYP3A4, substrate BFC

Chain of CYP1A2 (P05177 whole entry): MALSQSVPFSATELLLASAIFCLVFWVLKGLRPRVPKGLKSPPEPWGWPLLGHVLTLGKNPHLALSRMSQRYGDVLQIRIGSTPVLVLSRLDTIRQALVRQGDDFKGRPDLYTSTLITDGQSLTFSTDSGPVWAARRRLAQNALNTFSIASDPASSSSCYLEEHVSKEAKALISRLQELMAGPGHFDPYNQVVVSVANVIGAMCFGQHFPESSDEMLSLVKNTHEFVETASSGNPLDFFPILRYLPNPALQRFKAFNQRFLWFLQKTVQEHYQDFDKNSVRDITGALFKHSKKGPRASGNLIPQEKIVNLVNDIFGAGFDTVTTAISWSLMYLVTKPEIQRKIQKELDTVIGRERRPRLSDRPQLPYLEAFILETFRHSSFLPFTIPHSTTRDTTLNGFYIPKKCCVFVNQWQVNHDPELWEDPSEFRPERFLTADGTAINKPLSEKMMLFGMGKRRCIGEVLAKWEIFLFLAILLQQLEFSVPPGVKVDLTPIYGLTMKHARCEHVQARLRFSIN

Row | IC50 (CYP3A4(BQ)) [µM] | Structure (SMILES) | IC50 (CYP1A2) [µM] | IC50 (CYP2C19; [4]) [µM] | IC50 (CYP2C9) [µM] | IC50 (CYP2D6) [µM] | IC50 (CYP3A4(BFC); [5]) [µM] | IC50 (B-Raf [1]) [µM] | Biochemical activity ratio B/V600E (B-Raf [2]) | Biochemical activity ratio B/C (B-Raf [2]) | IC50 (B-Raf V600E) [µM] | Biochemical activity ratio V600E/C (B-Raf V600E) | IC50 (c-Raf-1) [µM] | turbidity threshold (L, M, H) 1.4 [3] | turbidity threshold (L, M, H) 4.5 [3] | turbidity threshold (L, M, H) 6.8 [3] | turbidity threshold (L, M, H) 7.4 [3] | IC50 (CYP2C19) [µM] | IC50 (CYP3A4(BFC)) [µM]
1 | > 10 | COCCNc1ncnc2[nH]cc(C(=O)c3c(F)ccc(NS(=O)(=O)c4ccccc4F)c3F)c12 [P-1150, N-{2,4-Difluoro-3-[4-(2-methoxy-ethylamino)-7H-pyrrolo[2,3-d]pyrimidine-5-carbonyl]-phenyl}-2-fluoro-benzenesulfonamide] | > 10 | > 10 | > 10 | > 10 | > 10 |  |  |  |  |  |  |  |  |  |  |  | 
2 | > 10 | CCn1cc(Nc2ncnc3[nH]cc(C(=O)c4c(F)ccc(NS(=O)(=O)c5ccccc5F)c4F)c23)cn1 [P-1153, N-{3-[4-(1-Ethyl-1H-pyrazol-4-ylamino)-7H-pyrrolo[2,3-d]pyrimidine-5-carbonyl]-2,4-difluoro-phenyl}-2-fluoro-benzenesulfonamide] | > 10 | > 10 | > 10 | > 10 | > 10 |  |  |  |  |  |  |  |  |  |  |  | 
3 |  | O=C(c1c(F)ccc(NS(=O)(=O)c2ccc(C(F)(F)F)cc2)c1F)c1c[nH]c2ncnc(NC3CCCC3)c12 [P-1035, N-[3-(4-Cyclopentylamino-7H-pyrrolo[2,3-d]pyrimidine-5-carbonyl)-2,4-difluoro-phenyl]-4-trifluoromethyl-benzenesulfonamide] | > 10 |  | > 10 | > 10 |  | < 0.1 | 0.1-10 | >10 | < 0.1 | >10 | < 0.1 | L (low solubility if the threshold concentration is <31.3 μM) | L (low solubility if the threshold concentration is <31.3 μM) | L (low solubility if the threshold concentration is <31.3 μM) | L (low solubility if the threshold concentration is <31.3 μM) | 5 to 10 | 5 to 10
4 |  | CCNc1ncnc2[nH]cc(C(=O)c3c(F)ccc(NS(=O)(=O)c4ccc(C(F)(F)F)cc4)c3F)c12 [P-1024, N-[3-(4-Ethylamino-7H-pyrrolo[2,3-d]pyrimidine-5-carbonyl)-2,4-difluoro-phenyl]-4-trifluoromethyl-benzenesulfonamide] | > 10 |  | > 10 | > 10 | > 10 | < 0.1 | 0.1-10 | >10 | > 0.1 | >10 | < 0.1 | M (moderate solubility if the threshold concentration is 31.3 μM to 250 μM) | L (low solubility if the threshold concentration is <31.3 μM) | L (low solubility if the threshold concentration is <31.3 μM) | L (low solubility if the threshold concentration is <31.3 μM) | 5 to 10 | 
5 |  | COc1ncnc2[nH]cc(C(=O)c3c(F)ccc(NS(=O)(=O)c4cc(C)cc(C)c4)c3F)c12 [P-1025, N-[2,4-Difluoro-3-(4-methoxy-7H-pyrrolo[2,3-d]pyrimidine-5-carbonyl)-phenyl]-3,5-dimethyl-benzenesulfonamide] | > 10 | > 10 | > 10 | > 10 |  | > 0.1 | 0.1-10 | >10 | > 0.1 | 0.1-10 | < 0.1 | M (moderate solubility if the threshold concentration is 31.3 μM to 250 μM) | L (low solubility if the threshold concentration is <31.3 μM) | M (moderate solubility if the threshold concentration is 31.3 μM to 250 μM) |  |  | 5 to 10
6 |  | CCCS(=O)(=O)Nc1ccc(F)c(C(=O)c2c[nH]c3ncnc(Cl)c23)c1F [P-1033, Propane-1-sulfonic acid [3-(4-chloro-7H-pyrrolo[2,3-d]pyrimidine-5-carbonyl)-2,4-difluoro-phenyl]-amide] | > 10 | > 10 | > 10 | > 10 | > 10 | > 0.1 | 0.1-10 | >10 | < 0.1 | 0.1-10 | < 0.1 | H (high solubility if the threshold concentration is >250 μm) | H (high solubility if the threshold concentration is >250 μm) | H (high solubility if the threshold concentration is >250 μm) | H (high solubility if the threshold concentration is >250 μm) |  | 
7 |  | CC(C)Nc1ncnc2[nH]cc(C(=O)c3c(F)ccc(NS(=O)(=O)c4ccc(C(F)(F)F)cc4)c3F)c12 [P-1039, N-[2,4-Difluoro-3-(4-isopropylamino-7H-pyrrolo[2,3-d]pyrimidine-5-carbonyl)-phenyl]-4-trifluoromethyl-benzenesulfonamide] | > 10 | > 10 | > 10 | > 10 |  | < 0.1 | 0.1-10 | >10 | < 0.1 | >10 | < 0.1 | M (moderate solubility if the threshold concentration is 31.3 μM to 250 μM) | M (moderate solubility if the threshold concentration is 31.3 μM to 250 μM) | M (moderate solubility if the threshold concentration is 31.3 μM to 250 μM) | M (moderate solubility if the threshold concentration is 31.3 μM to 250 μM) |  | 5 to 10
8 |  | Cc1cc(C)cc(S(=O)(=O)Nc2ccc(F)c(C(=O)c3c[nH]c4ncnc(C)c34)c2F)c1 [P-1027, N-[2,4-Difluoro-3-(4-methyl-7H-pyrrolo[2,3-d]pyrimidine-5-carbonyl)-phenyl]-3,5-dimethyl-benzenesulfonamide] | > 10 | > 10 | > 10 | > 10 | > 10 | > 0.1 | 0.1-10 | >10 | > 0.1 | 0.1-10 | < 0.1 |  | L (low solubility if the threshold concentration is <31.3 μM) | M (moderate solubility if the threshold concentration is 31.3 μM to 250 μM) |  |  | 
